Results reported in US20100209513A1, “PHARMACEUTICAL COMPOSITION CONTAINING MICRONIZED PARTICLES OF NAPHTHOQUINONE-BASED COMPOUND” (priority 2007, published 2010).

Columns and labels:
Format in all cases: in vivo
[1] = Body weight change in ob/ob mice, micronized particles of 15,16-dihydrotanshinone (Example 12); conditions: ob/ob male mice; 400 mg/kg plus sodium lauryl sulfate in admixture with the feed for 20 days
Procedure: In order to confirm therapeutic efficacy of micronized particles of 15,16-dihydrotanshinone, an animal experiment was carried out as follows.
For this purpose, 10-week-old ob/ob male mice (Jackson Lab) as an obese mouse model of type 2 diabetes were purchased from Orient Co., Ltd., Korea and were allowed to acclimate to a new environment of the breeding room for 10 days prior to experiments. Animals were fed a solid feed (P5053, Labdiet) as a laboratory animal chow. The ob/ob male mice were housed and allowed to acclimate to a new environment for 10 days, in a breeding room maintained at a temperature of 22±2° C., humidity of 55±5%, and a 12-h light/dark (L/D) cycle (light from 8:00 am. to 8:00 p.m.). According to a randomized blocks design, the thus-acclimated animals were randomly divided into four groups, each consisting of 7 animals: a control group with no administration of any drug sample, a group with administration of a vehicle (sodium lauryl sulfate) only, a group with administration of 15,16-dihydrotanshinone (before microparticulation, 400 mg/kg) plus sodium lauryl sulfate, and a group with administration of micronized particles of 15,16-dihydrotanshinone (400 mg/kg) plus sodium lauryl sulfate. Each group of animals was given drug samples in admixture with the feed for 20 days. […]

[2] = Body weight change in ob/ob mice, intestine-targeted formulation of micronized β-lapachone (Example 14); conditions: ob/ob male mice; 200 mg/kg in terms of β-lapachone content PO once a day
Procedure: In order to confirm therapeutic efficacy of β-lapachone {7,8-dihydro-2,2-dimethyl-2H-naphtho(2,3-b)dihydropyran-7,8-dione} when micronized particles of β-lapachone was prepared into a formulation of an intestine-targeted drug delivery system, an animal experiment was carried out as follows.
0.2 g of sodium lauryl sulfate (SLS) and 10 g of β-lapachone were mixed and ground. To the resulting mixture were added approximately an equal amount of a water-soluble polymer (hydroxypropyl methylcellulose) relative to β-lapachone, and vehicles such as Croscarmellose sodium and light anhydrous silicic acid, followed by spray drying. Then, the spray-dried product was added to an ethanol solution containing about 20% by weight of Eudragit S-100 as a pH-sensitive polymer and about 2% by weight of PEG #6,000 as a plasticizer, and the mixture was then spray-dried to prepare intestine-targeted formulations.
In order to confirm the efficacy of each formulation, 200 mg/kg of the formulation in terms of β-lapachone content was administered to ob/ob mice once a day and changes in the body weight (BW) of animals were examined.
For this purpose, 10-week-old ob/ob male mice (Jackson Lab) as an obese mouse model of type 2 diabetes were purchased from Orient Co., Ltd., Korea and were allowed to acclimate to a new environment of the breeding room for 10 days prior to experiments. […]

[3] = Body weight change in ob/ob mice, micronized particles of tanshinone IIA (Example 13); conditions: ob/ob male mice; 400 mg/kg plus sodium lauryl sulfate in admixture with the feed for 20 days
Procedure: In order to confirm therapeutic efficacy of micronized particles of tanshinone IIA, an animal experiment was carried out as follows.
For this purpose, 10-week-old ob/ob male mice (Jackson Lab) as an obese mouse model of type 2 diabetes were purchased from Orient Co., Ltd., Korea and were allowed to acclimate to a new environment of the breeding room for 10 days prior to experiments. Animals were fed a solid feed (P5053, Labdiet) as a laboratory animal chow. The ob/ob male mice were housed and allowed to acclimate to a new environment for 10 days, in a breeding room maintained at a temperature of 22±2° C., humidity of 55±5%, and a 12-h light/dark (L/D) cycle (light from 8:00 am. to 8:00 p.m.). According to a randomized blocks design, the thus-acclimated animals were randomly divided into four groups, each consisting of 7 animals: a control group with no administration of any drug sample, a group with administration of a vehicle (sodium lauryl sulfate) only, a group with administration of tanshinone IIA (before microparticulation, 400 mg/kg) plus sodium lauryl sulfate, and a group with administration of micronized particles of tanshinone IIA (400 mg/kg) plus sodium lauryl sulfate. Each group of animals was given drug samples in admixture with the feed for 20 days. All animals were allowed ad libitum access to water and standard laboratory chow throughout the study period.

[4] = Body weight change in ob/ob mice, effect of chitosan on micronized cryptotanshinone (Example 10); conditions: ob/ob male mice; cryptotanshinone 400 mg/kg in admixture with the feed for 20 days
Procedure: In order to ascertain whether chitosan maintains a particle size of micronized particles of cryptotanshinone, prevents the particle agglomeration or aggregation, and enhances therapeutic efficacy of cryptotanshinone, an animal experiment was carried out as follows.
(§1) 10-week-old ob/ob male mice (Jackson Lab) as an obese mouse model of type 2 diabetes were purchased from Orient Co., Ltd., Korea and were allowed to acclimate to a new environment of the breeding room for 10 days prior to experiments. Animals were fed a solid feed (P5053, Labdiet) as a laboratory animal chow. The ob/ob male mice were housed and allowed to acclimate to a new environment for 10 days, in a breeding mom maintained at a temperature of 22±2° C., humidity of 55±5%, and a 12-h light/dark (L/D) cycle (light from 8:00 am. to 8:00 p.m.). According to a randomized blocks design, the thus-acclimated animals were randomly divided into four groups, each consisting of 7 animals: a control group with no administration of any drug sample, a group with administration of a vehicle (chitosan) only, a group with administration of cryptotanshinone (400 mg/kg), and a group with administration of cryptotanshinone (400 mg/kg) plus chitosan. Each group of animals was given drug samples in admixture with the feed for 20 days. All animals were allowed ad libitum access to water and standard laboratory chow throughout the study period.

[5] = Body weight change in ob/ob mice, effect of sucrose palmitate on micronized cryptotanshinone (Example 11); conditions: cryptotanshinone 400 mg/kg in admixture with the feed for 20 days
Procedure: (§2) In order to ascertain whether sucrose palmitate which is an emulsifier maintains a particle size of micronized particles of cryptotanshinone, prevents the particle agglomeration or aggregation, and enhances therapeutic efficacy of cryptotanshinone, an animal experiment was carried out as follows.
as §1, with “room” for “mom”, “(sucrose palmitate)” for “(chitosan)”, “sucrose palmitate.” for “chitosan.”, “All animals were allowed ad libitum access to water and standard laboratory chow throughout the study period.” left out

[6] = Body weight change in DIO C57BL/6 mice, effect of phosphatidylcholine on micronized cryptotanshinone (Example 8); conditions: DIO C57BL/6 male mice; cryptotanshinone 150 mg/kg PO for 40 days
Procedure: as §2, with “phosphatidylcholine (PC)” for “sucrose palmitate”, “a phospholipid” for “an emulsifier”
For this purpose, 5-week-old C57BL/6 male mice were purchased from Orient Co., Ltd., Korea and were allowed to acclimate to a new environment of the breeding room for 10 days prior to experiments. A DIO (diet-induced obesity) mouse model was established by supplying to animals high-fat diet for 8 weeks. 13-week-old male mice weighing 40 g were used in experiments. Animals were fed a high-fat feed (45 kcal % fat) (D12451, Research Diets Inc., New Brunswick, N.J.) as a laboratory animal chow. The DIO mice were housed and allowed to acclimate to a new environment for 10 days, in a breeding room maintained at a temperature of 22±2° C., humidity of 55±5%, and a 12-h light/dark (L/D) cycle (light from 8:00 a.m. to 8:00 p.m.). […]

[7] = Body weight change in ob/ob mice, effect of calcium silicate on micronized cryptotanshinone (Example 9); conditions: ob/ob male mice; cryptotanshinone 400 mg/kg in admixture with the feed for 20 days
Procedure: In order to ascertain whether calcium silicate maintains a particle size of micronized particles of cryptotanshinone, prevents the particle agglomeration or aggregation, and enhances therapeutic efficacy of cryptotanshinone, an animal experiment was carried out as follows.
as §1, with “room” for “mom”, “(calcium silicate)” for “(chitosan)”, “calcium silicate.” for “chitosan.”, “All animals were allowed ad libitum access to water and standard laboratory chow throughout the study period.” left out

Cc1cccc2c3c(ccc12)C1=C(C(=O)C3=O)C(C)CO1 (stereo not shown) [15,16-dihydrotanshinone]
Final BW [1]: 55.4 ± 3.1 g

CC1(C)CCC2=C(O1)c1ccccc1C(=O)C2=O [Simply finely-divided powder, β-lapachone]
Final BW [2]: 57.5 ± 1.3 g

Cc1coc2c1C(=O)C(=O)c1c-2ccc2c1CCCC2(C)C [Tanshinone IIA before microparticulation, tanshinone IIA]
Final BW [3]: 58.4 ± 3.3 g

C[C@H]1COC2=C1C(=O)C(=O)c1c2ccc2c1CCCC2(C)C [Cryptotanshinone alone, cryptotanshinone]
Final BW [4]: 53.2 ± 1.3 g
Final BW [5]: 53.2 ± 1.3 g
Final BW [6]: 40.2 ± 1.3 g
Final BW [7]: 53.2 ± 1.3 g
